Results: patent US11564928B1, “Cannabinoid receptor type 2 (CB2) modulators and uses thereof” (Teon Therapeutics, Inc., priority 2020, dated 2023)
Where two headings read alike, the source gives them in different places.

Experiments:
human CB2 receptor [1] = molecular target: T1, human CB2 receptor (Homo sapiens (Human), UniProt P34972); assay: CB2 receptor binding assay ([3H]CP-55,940 displacement, HEK-293 membranes); conditions: membranes of HEK-293 cells with human recombinant CB2R, [3H]CP-55,940, read-out: CB2 IC50
human recombinant CB1R = human recombinant CB1R (Homo sapiens (Human), UniProt P21554); assay: CB1 receptor binding assay ([3H]CP-55,940 displacement, HEK-293 membranes); conditions: membranes of HEK-293 cells with human recombinant CB1R, [3H]CP-55,940, read-out: CB1 IC50
In short: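 Displacement of [3H]CP-55,940 was measured on human CB1R- or CB2R-transfected HEK-293 membranes after 120 min at 37 °C, in duplicate, with filtration and scintillation counting. For CB2R, incubation used Tris-HCl 50 mM, MgCl2 5 mM, CaCl2 1 mM, BSA 0.2%, pH 7.4. Ki values were derived from variable-slope IC50 fits using Cheng–Prusoff.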

human CB2 receptor [2] = molecular target: T1, human CB2 receptor; assay: CB2 receptor cAMP assay (DiscoverX HitHunter cAMP XS+); type: cell-based
Description: cAMP Hunter CHO-K-1 cell lines expressing human CB2 receptor (Eurofins) were expanded from freezer stocks according to standard procedures. Cells were seeded in a total volume of 20 μL into white walled, 384-well microplates and incubated at 37° C. for the appropriate time prior to testing. cAMP modulation in agonist, inverse agonist or antagonist format was determined using the DiscoverX HitHunter cAMP XS+ assay (Eurofins). For agonist determination, cells were incubated with sample in the presence of EC80 forskolin to induce response. Media was aspirated from cells and replaced with 15 μL 2:1 HBSS/10 mM Hepes: cAMP XS+Ab reagent. Intermediate dilution of sample stocks was performed to generate 4× sample in assay buffer containing 4× EC80 forskolin. 5 μL of 4× sample was added to cells and incubated at 37° C. or room temperature for 30 or 60 minutes. Final assay vehicle concentration was 1%. For inverse agonist determination, cells were preincubated with sample in the presence of EC20 forskolin. Media was aspirated from cells and replaced with 15 μL, 2:1 HBSS/10 mM Hepes: cAMP XS+Ab reagent. Intermediate dilution of sample stocks was performed to generate 4× sample in assay buffer containing 4× EC20 forskolin. 5 μL of 4× sample was added to cells and incubated at 37° C. or room temperature for 30 or 60 minutes. Final assay vehicle concentration was 1%. For antagonist determination, cells were pre-incubated with sample followed by agonist challenge at the EC80 concentration. Media was aspirated from cells and replaced with 10 μL 1:1 HBSS/Hepes: cAMP XS+Ab reagent. 5 μL of 4× compound was added to the cells and incubated at 37° C. or room temperature for 30 minutes. 5 μL of 4× EC80 agonist was added to cells and incubated at 37° C. or room temperature for 30 or 60 minutes. EC80 forksolin was included. After appropriate compound incubation, assay signal was generated through incubation with 20 μL cAMP XS+ED/CL lysis cocktail for one hour followed by incubation with 20 μL, cAMP XS+EA reagent for three hours at room temperature. Microplates were read following signal generation with a PerkinElmer Envision instrument for chemiluminescent signal detection. Compound activity was analyzed using CBIS data analysis suite (ChemInnovation, CA). For agonist mode assay, percentage activity is calculated using the following formula: % Activity=100%×(1−(mean RLU of test sample−mean RLU of MAX control)/(mean RLU of vehicle control−mean RLU of MAX control)). For inverse agonist mode assay, percentage activity is calculated using the following formula: % Inverse Agonist Activity=100%×((mean RLU of test sample−mean RLU of EC20 forskolin)/(mean RLU of forskolin positive control−mean RLU of EC20 control)). For antagonist mode assay, percentage inhibition is calculated using the following formula: % Inhibition=100%×(mean RLU of test sample−mean RLU of EC80 control)/(mean RLU of forskolin positive control−mean RLU of EC80 control). Data are analyzed and IC50 is calculated using GraphPad Prism 5 and the model “log(inhibitor) vs. response—Variable slope”.

[3] = CHO-K1, read-out: Max Stimulation %
[4] = cAMP Hunter CHO-K-1 cells expressing human CB2 receptor, read-out: cAMP IC50
[5] = CHO-K1, cAMP Hunter CHO-K-1 cells expressing human CB2 receptor, read-out: Max Stimulation %

T1 sequence (P34972 whole entry): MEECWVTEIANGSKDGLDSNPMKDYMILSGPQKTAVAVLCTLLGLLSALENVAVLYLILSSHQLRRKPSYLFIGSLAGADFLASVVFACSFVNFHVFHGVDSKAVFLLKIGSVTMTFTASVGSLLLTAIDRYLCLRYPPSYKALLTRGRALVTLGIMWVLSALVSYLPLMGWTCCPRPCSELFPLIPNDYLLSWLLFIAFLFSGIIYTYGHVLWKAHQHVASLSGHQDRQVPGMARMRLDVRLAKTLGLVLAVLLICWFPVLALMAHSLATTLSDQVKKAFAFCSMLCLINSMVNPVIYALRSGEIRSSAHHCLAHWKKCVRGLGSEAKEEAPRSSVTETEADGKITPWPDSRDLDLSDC
Sequence of human recombinant CB1R (P21554 whole entry): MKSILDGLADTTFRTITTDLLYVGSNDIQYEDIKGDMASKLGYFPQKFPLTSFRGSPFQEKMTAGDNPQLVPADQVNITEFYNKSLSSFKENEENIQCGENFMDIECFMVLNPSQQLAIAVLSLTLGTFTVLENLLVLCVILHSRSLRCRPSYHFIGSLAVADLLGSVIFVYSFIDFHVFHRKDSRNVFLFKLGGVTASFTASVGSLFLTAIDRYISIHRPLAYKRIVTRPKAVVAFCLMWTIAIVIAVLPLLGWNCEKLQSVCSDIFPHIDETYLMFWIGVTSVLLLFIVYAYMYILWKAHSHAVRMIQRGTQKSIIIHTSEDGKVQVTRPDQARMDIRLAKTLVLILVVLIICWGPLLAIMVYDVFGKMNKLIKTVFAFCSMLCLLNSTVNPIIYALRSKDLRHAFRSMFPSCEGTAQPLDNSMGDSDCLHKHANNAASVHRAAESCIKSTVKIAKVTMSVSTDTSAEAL

Question: What does the source list for `COc1ccc(-c2cnc3c(c2)cc(C(=O)NC(C)c2ccc(F)cc2)c(=O)n3CCN2CCOCC2)cc1` (stereo not shown) [Compound 30, N-(1-(4-fluorophenyl)ethyl)-6-(4-methoxyphenyl)-1-(2-morpholinoethyl)-2-oxo-1,2-dihydro-1,8-naphthyridine-3-carboxamide]?
Answer: IC50 (human CB2 receptor [1]): 1.2 nM; IC50 (human recombinant CB1R): > 10000 nM; IC50 (human CB2 receptor [2]): 17 nM; Emax (human CB2 receptor [2]; [3]): 89%

Question: How did the IC50 (human CB2 receptor [1]; class symbols) turn out when `COc1ccc(-c2cnc3c(c2)cc(C(=O)NC2CC4(COC4)C2)c(=O)n3CCN2CCOCC2)cc1` [Compound 31, 6-(4-methoxyphenyl)-1-(2-morpholinoethyl)-2-oxo-N-(2-oxaspiro[3.3]heptan-6-yl)-1,2-dihydro-1,8-naphthyridine-3-carboxamide] was run?
Answer: < 100 nM

Question: And the IC50 (human recombinant CB1R; class symbols)?
Answer: > 1000 nM

Question: And the Emax (human CB2 receptor [2]; [3])?
Answer: 78%

Question: And the IC50 (human CB2 receptor [2]; [4])?
Answer: 127 nM

Question: Which IC50 (human CB2 receptor [1]) does the source give for `O=C(NC1CC2(CCC2)C1)c1cc2cc(-c3ccc4c(c3)OCCO4)cnc2n(CCN2CCOCC2)c1=O` [Compound 33, 6-(2,3-dihydrobenzo[b][1,4]dioxin-6-yl)-1-(2-morpholinoethyl)-2-oxo-N-(spiro[3.3]heptan-2-yl)-1,2-dihydro-1,8-naphthyridine-3-carboxamide] here?
Answer: 4 nM

Question: What about the IC50 (human recombinant CB1R) of the same molecule?
Answer: > 10000 nM

Question: What about the IC50 (human CB2 receptor [2]) of the same molecule?
Answer: 6 nM

Question: Which results are given for `N#Cc1ccc(-c2cnc3c(c2)cc(C(=O)NC2CC4(CCC4)C2)c(=O)n3CCN2CCOCC2)nc1` [Compound 36, 6-(5-cyanopyridin-2-yl)-1-(2-morpholinoethyl)-2-oxo-N-(spiro[3.3]heptan-2-yl)-1,2-dihydro-1,8-naphthyridine-3-carboxamide]?
Answer: IC50 (human CB2 receptor [1]): 5 nM; IC50 (human recombinant CB1R): > 10000 nM; IC50 (human CB2 receptor [2]): 13 nM; Emax (human CB2 receptor [2]; [3]): 89%

Question: Which results are given for `CC(C)(NC(=O)c1cc2cc(-c3ccc(C#N)cn3)cnc2n(CCN2CCOCC2)c1=O)c1ccc(F)cc1` [Compound 40, 6-(5-cyanopyridin-2-yl)-N-(2-(4-fluorophenyl)propan-2-yl)-1-(2-morpholinoethyl)-2-oxo-1,2-dihydro-1,8-naphthyridine-3-carboxamide]?
Answer: IC50 (human CB2 receptor [1]): 7 nM; IC50 (human recombinant CB1R): > 10000 nM; IC50 (human CB2 receptor [2]): 10 nM; Emax (human CB2 receptor [2]; [3]): 74%

Question: Which results are given for `N#Cc1ccc(-c2cnc3c(c2)cc(C(=O)NC2(c4ccc(F)cc4)CC2)c(=O)n3CCN2CCOCC2)nc1` [Compound 42, 6-(5-cyanopyridin-2-yl)-N-(1-(4-fluorophenyl)cyclopropyl)-1-(2-morpholinoethyl)-2-oxo-1,2-dihydro-1,8-naphthyridine-3-carboxamide]?
Answer: IC50 (human CB2 receptor [1]): 23 nM; IC50 (human recombinant CB1R): > 10000 nM; IC50 (human CB2 receptor [2]): 14 nM; Emax (human CB2 receptor [2]; [3]): 73%

Question: What does the source list for `N#Cc1ccc(-c2cnc3c(c2)cc(C(=O)NC2CC4(CCC4)C2)c(=O)n3CCN2CCOCC2)cc1` [Compound 44, 6-(4-cyanophenyl)-1-(2-morpholinoethyl)-2-oxo-N-(spiro[3.3]heptan-2-yl)-1,2-dihydro-1,8-naphthyridine-3-carboxamide]?
Answer: IC50 (human CB2 receptor [1]): 7.2 nM; IC50 (human recombinant CB1R): 6080 nM; IC50 (human CB2 receptor [2]; [4]): > 1000 nM

Question: What does the source list for `CC(NC(=O)c1cc2cc(-c3ccc(C#N)cc3)cnc2n(CCN2CCOCC2)c1=O)c1ccc(F)cc1` (stereo not shown) [Compound 45, 6-(4-cyanophenyl)-N-(1-(4-fluorophenyl)ethyl)-1-(2-morpholinoethyl)-2-oxo-1,2-dihydro-1,8-naphthyridine-3-carboxamide]?
Answer: IC50 (human CB2 receptor [1]; class symbols): < 100 nM; IC50 (human recombinant CB1R; class symbols): > 1000 nM; IC50 (human CB2 receptor [2]): 15 nM; Emax (human CB2 receptor [2]; [3]): 70%

Question: How did the IC50 (human CB2 receptor [1]) turn out when `N#Cc1ccc(-c2cnc3c(c2)cc(C(=O)NC24CC(C2)C4)c(=O)n3CCN2CCOCC2)cc1` [Compound 46, N-(bicyclo[1.1.1]pentan-1-yl)-6-(4-cyanophenyl)-1-(2-morpholinoethyl)-2-oxo-1,2-dihydro-1,8-naphthyridine-3-carboxamide] was run?
Answer: 6 nM

Question: What about the IC50 (human recombinant CB1R) of the same molecule?
Answer: 8610 nM

Question: And the IC50 (human CB2 receptor [2])?
Answer: 14 nM

Question: And the Emax (human CB2 receptor [2]; [3])?
Answer: 77%

Question: With `C[C@@H](NC(=O)c1cc2cc(-c3ccc(OC(F)F)cn3)cnc2n(CCN2CCOCC2)c1=O)c1ccc(F)cc1` [Compound 48, (R)-6-(5-(difluoromethoxy)pyridin-2-yl)-N-(1-(4-fluorophenyl)ethyl)-1-(2-morpholinoethyl)-2-oxo-1,2-dihydro-1,8-naphthyridine-3-carboxamide] as the molecule, how does the IC50 (human CB2 receptor [1]) read?
Answer: 4.5 nM

Question: What about the IC50 (human recombinant CB1R) of the same molecule?
Answer: > 10000 nM

Question: And the Emax (human CB2 receptor [2]; [5])?
Answer: 66%

Question: And the IC50 (human CB2 receptor [2]; [4])?
Answer: 0.2 nM

Question: For `COc1ccc(-c2cnc3c(c2)cc(C(=O)NC24CC(C2)C4)c(=O)n3CCN2CCOCC2)cc1` [Compound 50, N-(bicyclo[1.1.1]pentan-1-yl)-6-(4-methoxyphenyl)-1-(2-morpholinoethyl)-2-oxo-1,2-dihydro-1,8-naphthyridine-3-carboxamide], which IC50 (human CB2 receptor [1]) is on record?
Answer: 4.3 nM

Question: What about the IC50 (human recombinant CB1R) of the same molecule?
Answer: 2780 nM

Question: And the IC50 (human CB2 receptor [2])?
Answer: 0.6 nM

Question: What about the Emax (human CB2 receptor [2]; [3]) of the same molecule?
Answer: 80%

Question: How did the IC50 (human CB2 receptor [1]) turn out when `CC1CCC(NC(=O)c2cc3cc(-c4ccc(OC(F)F)cc4)cnc3n(CCN3CCOCC3)c2=O)CC1` (stereo not shown) [Compound 51, 6-(4-(difluoromethoxy)phenyl)-N-(4-methylcyclohexyl)-1-(2-morpholinoethyl)-2-oxo-1,2-dihydro-1,8-naphthyridine-3-carboxamide] was run?
Answer: 2.1 nM

Question: And the IC50 (human recombinant CB1R)?
Answer: > 10000 nM

Question: And the IC50 (human CB2 receptor [2])?
Answer: 2 nM

Question: And the Emax (human CB2 receptor [2]; [3])?
Answer: 108%

Question: `O=C(NC1CC2(CCC2)C1)c1cc2cc(-c3ccc(OC(F)F)cc3)cnc2n(CCN2CCOCC2)c1=O` [Compound 52, 6-(4-(difluoromethoxy)phenyl)-1-(2-morpholinoethyl)-2-oxo-N-(spiro[3.3]heptan-2-yl)-1,2-dihydro-1,8-naphthyridine-3-carboxamide] was tested. Which IC50 (human CB2 receptor [1]) did it give?
Answer: 10 nM

Question: And the IC50 (human recombinant CB1R)?
Answer: 962 nM

Question: And the IC50 (human CB2 receptor [2])?
Answer: 1 nM

Question: And the Emax (human CB2 receptor [2]; [3])?
Answer: 77%

Question: What does the source list for `CC(NC(=O)c1cc2cc(-c3ccc(OC(F)F)cc3)cnc2n(CCN2CCOCC2)c1=O)c1ccc(F)cc1` (stereo not shown) [Compound 53, 6-(4-(difluoromethoxy)phenyl)-N-(1-(4-fluorophenyl)ethyl)-1-(2-morpholinoethyl)-2-oxo-1,2-dihydro-1,8-naphthyridine-3-carboxamide]?
Answer: IC50 (human CB2 receptor [1]; class symbols): < 100 nM; IC50 (human recombinant CB1R; class symbols): > 1000 nM; Emax (human CB2 receptor [2]; [5]): 85%; IC50 (human CB2 receptor [2]; [4]): 2 nM

Question: Which results are given for `CC(NC(=O)c1cc2cc(-c3ccc(OC(F)F)cn3)cnc2n(CCN2CCOCC2)c1=O)c1ccc(F)cc1` (stereo not shown) [Compound 55, 6-(5-(difluoromethoxy)pyridin-2-yl)-N-(1-(4-fluorophenyl)ethyl)-1-(2-morpholinoethyl)-2-oxo-1,2-dihydro-1,8-naphthyridine-3-carboxamide]?
Answer: IC50 (human CB2 receptor [1]): 0.6 nM; IC50 (human recombinant CB1R): 2940 nM; Emax (human CB2 receptor [2]; [5]): 84%; IC50 (human CB2 receptor [2]; [4]): 11 nM

Question: Which results are given for `CC1CCC(NC(=O)c2cc3cc(-c4ccc(C#N)cn4)cnc3n(CCN3CCOCC3)c2=O)CC1` (stereo not shown) [Compound 57, 6-(5-cyanopyridin-2-yl)-N-(4-methylcyclohexyl)-1-(2-morpholinoethyl)-2-oxo-1,2-dihydro-1,8-naphthyridine-3-carboxamide]?
Answer: IC50 (human CB2 receptor [1]; class symbols): < 100 nM; IC50 (human recombinant CB1R; class symbols): > 1000 nM; IC50 (human CB2 receptor [2]): 8 nM; Emax (human CB2 receptor [2]; [3]): 63%

Question: With `N#Cc1ccc(-c2cnc3c(c2)cc(C(=O)NC24CC(C2)C4)c(=O)n3CCN2CCOCC2)nc1` [Compound 59, N-(bicyclo[1.1.1]pentan-1-yl)-6-(5-cyanopyridin-2-yl)-1-(2-morpholinoethyl)-2-oxo-1,2-dihydro-1,8-naphthyridine-3-carboxamide] as the molecule, how does the IC50 (human CB2 receptor [1]) read?
Answer: 130 nM

Question: What about the IC50 (human recombinant CB1R) of the same molecule?
Answer: > 10000 nM

Question: What about the Emax (human CB2 receptor [2]; [3]) of the same molecule?
Answer: 75%

Question: What about the IC50 (human CB2 receptor [2]; [4]) of the same molecule?
Answer: 119 nM

Question: `CC1CCC(NC(=O)c2cc3cc(Br)cnc3n(CCN3CCOCC3)c2=O)CC1` (stereo not shown) [Compound 61, 6-bromo-N-(4-methylcyclohexyl)-1-(2-morpholinoethyl)-2-oxo-1,2-dihydro-1,8-naphthyridine-3-carboxamide] was tested. Which IC50 (human CB2 receptor [1]; class symbols) did it give?
Answer: < 100 nM

Question: And the IC50 (human recombinant CB1R; class symbols)?
Answer: > 1000 nM

Question: And the IC50 (human CB2 receptor [2])?
Answer: 13 nM

Question: And the Emax (human CB2 receptor [2]; [3])?
Answer: 83%
